Patent US20210379040A1, “COMBINATION TREATMENT OF LIVER DISORDERS” (Terns Pharmaceuticals, Inc., priority 2020, published 2021)
Where a name gives a salt, the structure may show the parent alone. Read-outs that look alike come from different tables or passages of the source.

Assays:
[1] = cited from earlier work
[2] = test system: FXR-regulated gene expression in human HuH7 hepatoma cells; test: cells; conditions: Huh-7, 11 h
Description: EC50 values for FXR-regulated gene expression were determined using a cell-based RNA assay.

[3] = male, human, in vivo
Description: (§1) SSAO inhibition was determined by measuring relative reductions in plasma H2O2 generation after addition of an exogenous substrate (benzylamine). […] Safety was assessed for 7 (±3) days after dosing.
(§2) Plasma PK parameters were determined by non-compartmental analysis. […] Percent change in total amine oxidase activity was determined relative to the corresponding pre-dose (baseline) samples.

[4] = Single-ascending dose clinical trial: plasma PK and safety
Description: as §1, §2

O=C(O)c1ccnc(N2CC(O)(c3ccc(OCc4c(-c5c(Cl)cccc5Cl)noc4C4CC4)cc3Cl)C2)c1 [cilofexor]
pruritus in longer term studies [1]: known to result in pruritus

CC[C@H]1[C@@H](O)[C@@H]2[C@H](CC[C@]3(C)[C@@H]([C@H](C)CCC(=O)O)CC[C@@H]23)[C@@]2(C)CC[C@@H](O)C[C@@H]12 [OCA, obeticholic acid, reference compound]
pruritus in longer term studies [1]: known to result in pruritus | EC50 ([2]; read-out: EC50, BSEP Gene induction/HuH7): 200 nM | EC50 ([2]; read-out: EC50, FGF-19 Gene Induction/HuH7): 130 nM | EC50 ([2]; read-out: EC50, SHP Gene induction/HuH7): 200 nM

COC1CCN(c2ncc(OC/C(=C/F)CN)cn2)CC1 [tosylate salt of Compound 2]
TEAE frequency: oral herpes [3]: 1 (3.1) | Subject incidence of TEAEs considered possibly treatment-related ([4]; 1 mg or placebo (n = 8)): 0 | Subject incidence of any TEAE ([4]; 1 mg or placebo (n = 8)): 0 | TEAE frequency: constipation ([4]; 1 mg or placebo (n = 8)): 0 | TEAE frequency: contact dermatitis ([4]; 1 mg or placebo (n = 8)): 0 | TEAE frequency: dysgeusia ([4]; 1 mg or placebo (n = 8)): 0 | TEAE frequency: headache ([4]; 1 mg or placebo (n = 8)): 0 | TEAE frequency: sore throat ([4]; 1 mg or placebo (n = 8)): 0 | TEAE frequency: upper respiratory tract infection ([4]; 1 mg or placebo (n = 8)): 0 | Subject incidence of TEAEs considered possibly treatment-related ([4]; 3 mg or placebo (n = 8)): 0 | Subject incidence of any TEAE ([4]; 3 mg or placebo (n = 8)): 0 | TEAE frequency: constipation ([4]; 3 mg or placebo (n = 8)): 0 | TEAE frequency: contact dermatitis ([4]; 3 mg or placebo (n = 8)): 0 | TEAE frequency: dysgeusia ([4]; 3 mg or placebo (n = 8)): 0 | TEAE frequency: headache ([4]; 3 mg or placebo (n = 8)): 0 | TEAE frequency: sore throat ([4]; 3 mg or placebo (n = 8)): 0 | TEAE frequency: upper respiratory tract infection ([4]; 3 mg or placebo (n = 8)): 0 | Subject incidence of TEAEs considered possibly treatment-related ([4]; 6 mg (n = 8)): 0 | Subject incidence of any TEAE ([4]; 6 mg (n = 8)): 2 (25) | TEAE frequency: constipation ([4]; 6 mg (n = 8)): 0 | TEAE frequency: contact dermatitis ([4]; 6 mg (n = 8)): 2 (25) | TEAE frequency: dysgeusia ([4]; 6 mg (n = 8)): 0 | TEAE frequency: headache ([4]; 6 mg (n = 8)): 0 | TEAE frequency: sore throat ([4]; 6 mg (n = 8)): 1 (12.5) | TEAE frequency: upper respiratory tract infection ([4]; 6 mg (n = 8)): 0 | Subject incidence of TEAEs considered possibly treatment-related ([4]; 10 mg or placebo (n = 8)): 1 (12.5) | Subject incidence of any TEAE ([4]; 10 mg or placebo (n = 8)): 3 (37.5) | TEAE frequency: constipation ([4]; 10 mg or placebo (n = 8)): 1 (12.5) | TEAE frequency: contact dermatitis ([4]; 10 mg or placebo (n = 8)): 0 | TEAE frequency: dysgeusia ([4]; 10 mg or placebo (n = 8)): 1 (12.5) | TEAE frequency: headache ([4]; 10 mg or placebo (n = 8)): 1 (12.5) | TEAE frequency: sore throat ([4]; 10 mg or placebo (n = 8)): 0 | TEAE frequency: upper respiratory tract infection ([4]; 10 mg or placebo (n = 8)): 1 (12.5) | Subject incidence of TEAEs considered possibly treatment-related ([4]; All (n = 32)): 1 (3.1) | Subject incidence of any TEAE ([4]; All (n = 32)): 5 (15.6) | TEAE frequency: constipation ([4]; All (n = 32)): 1 (3.1) | TEAE frequency: contact dermatitis ([4]; All (n = 32)): 2 (6.3) | TEAE frequency: dysgeusia ([4]; All (n = 32)): 1 (3.1) | TEAE frequency: headache ([4]; All (n = 32)): 1 (3.1) | TEAE frequency: sore throat ([4]; All (n = 32)): 1 (3.1) | TEAE frequency: upper respiratory tract infection ([4]; All (n = 32)): 1 (3.1) | clearance from plasma ([4]; single doses, healthy humans): rapidly cleared from plasma

CC[C@H]1[C@@H](O)[C@@H]2[C@H](CC[C@]3(C)[C@@H]([C@H](C)CCNC(=O)NS(=O)(=O)c4ccc(C(C)(C)C)cc4)CC[C@@H]23)[C@@]2(C)CC[C@@H](O)C[C@@H]12 [EDP-305]
pruritus in longer term studies [1]: known to result in pruritus

O=C(O)c1cc(F)c2nc(N3[C@@H]4CC[C@H]3C[C@@H](OCc3c(-c5ccccc5OC(F)(F)F)noc3C3CC3)C4)sc2c1 [tropifexor]
pruritus in longer term studies [1]: known to result in pruritus
